Experimental data as given in US9708302B2, “Flouro-naphthyl derivatives” (Hoffmann-La Roche Inc., priority 2014, dated 2017).

Assays:
[1] = biological target: hM1 (Homo sapiens (Human), UniProt P11229); test: M1 PAM Assay (FLIPR intracellular calcium, CHO human M1 cells); type: cell-based; conditions: positive allosteric modulation in presence of EC20 of acetylcholine, first value of cell
Description: (§1) The assay study the effect of several concentrations of test compounds on basal or acetylcholine-stimulated Ca^2+ levels using FLIPR.
(§2) CHO human M1 are plated the day before the experiments at 2×10^5 cells/ml in PDL BioCoat 96 well black/clear plate (Becton 35 4640). The cells are grown at 37° C. and 5% CO2 in the following medium: F12 Nut Mix (Gibco 21765), 10% FCS heat inactivated (GIBCO 16000-044), 1% Pen Strep (Gibco, 15140) and 200 μg/ml Geneticin (Gibco 11811). On the day of the experiment, the medium was removed and replaced by 100 μl of dye loading buffer containing Hanks Balanced Salt solution (HBSS, 14065-049, Gibco) with 20 mM HEPES (Gibco 15630-056), 2 mM Probenicid (Sigma P8761), […] (Molecular Probes F-14202), 10% Pluronic acid Molecular Probes P-3000) pH=7.4 and incubated at 37° C. After 60 minutes extracellular dye was removed and the cells were washed five times with FLIPR buffer containing HBSS (Gibco 14065-049) with 20 mM HEPES (Gibco, 15630-056), 2 mM Probenicid (Sigma P8761) pre-warmed at 37° C. using and Ebml cell washer leaving 100 μl of FLIPR buffer in each well. The cell plate and the diluted compounds (1% DMSO final concentration) are placed on the platform of the FLIPR and the door closed. A signal test to check background fluorescence and basal fluorescence signal is performed. Laser intensity is adjusted if necessary. Two minutes preincubation with the diluted test compounds is provide to determine any agonist activity on the M1 receptor by comparison to 30 nM Acetylcholine control. In order to determine any modulator activity the diluted compounds were added to cells and after two minutes preincubation, the EC20 of acetylcholine is added followed by another two minutes preincubation before the measurement of intracellular Ca^2+ with a FLIPR (Molecular Devices).

[2] = biological target: rat M1 (Rattus norvegicus (Rat), UniProt P08482); test: M1 PAM Assay (FLIPR intracellular calcium), rat M1; type: cell-based; conditions: positive allosteric modulation in presence of EC20 of acetylcholine; second value of cell
rat M1, sequence (P08482 whole entry): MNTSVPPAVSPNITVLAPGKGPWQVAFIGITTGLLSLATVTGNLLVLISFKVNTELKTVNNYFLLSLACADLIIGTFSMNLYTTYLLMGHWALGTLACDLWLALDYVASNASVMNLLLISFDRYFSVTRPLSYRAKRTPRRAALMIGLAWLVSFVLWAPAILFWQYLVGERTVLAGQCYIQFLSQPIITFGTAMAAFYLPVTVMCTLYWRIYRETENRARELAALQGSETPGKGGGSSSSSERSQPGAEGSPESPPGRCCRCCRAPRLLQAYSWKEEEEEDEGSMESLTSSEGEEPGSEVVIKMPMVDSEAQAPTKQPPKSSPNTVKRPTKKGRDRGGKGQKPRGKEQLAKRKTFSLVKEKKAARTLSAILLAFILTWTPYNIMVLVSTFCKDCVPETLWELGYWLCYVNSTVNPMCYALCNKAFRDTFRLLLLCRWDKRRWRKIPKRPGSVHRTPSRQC
Description: [The procedure below names another species; the source lists this species under the same test.] as §1, §2

hM1, sequence (P11229 whole entry): as the sequence (P08482 whole entry) above, with V5A, S254T, S309P, K320R, G337A, V413I counted along it

SMILES | EC50 [1] [µM] | EC50 [2] [µM]
O=C(N[C@H]1CCCC[C@@H]1O)c1cc(Cc2ccc(Cl)nc2)c2ccccc2c1F (racemic) [Example 1, 4-((6-Chloropyridin-3-yl)methyl)-1-fluoro-N-((1SR,2SR)-2-hydroxycyclohexyl)-2-naphthamide] | 0.159 | 0.137
O=C(N[C@H]1CCOC[C@@H]1O)c1cc(Cc2ccc(Cl)nc2)c2ccccc2c1F (racemic) [Example 2, 4-((6-chloropyridin-3-yl)methyl)-1-fluoro-N-((3RS,4SR)-3-hydroxytetrahydro-2H-pyran-4-yl)-2-naphthamide] | 0.053 | 0.118
C[C@]1(O)CCCC[C@@H]1NC(=O)c1cc(Cc2ccc(Cl)nc2)c2ccccc2c1F (racemic) [Example 7, 4-((6-chloropyridin-3-yl)methyl)-1-fluoro-N-((1SR,2SR)-2-hydroxy-2-methylcyclohexyl)-2-naphthamide] | 0.561 | 
C[C@@]1(O)CCCC[C@@H]1NC(=O)c1cc(Cc2ccc(Cl)nc2)c2ccccc2c1F (racemic) [Example 8, 4-((6-chloropyridin-3-yl)methyl)-1-fluoro-N-((1SR,2RS)-2-hydroxy-2-methylcyclohexyl)-2-naphthamide] | 0.524 | 
O=C(N[C@H]1CCCC[C@H]1O)c1cc(Cc2ccc(Cl)nc2)c2ccccc2c1F (racemic) [Example 9, 4-((6-chloropyridin-3-yl)methyl)-1-fluoro-N-((1SR,2RS)-2-hydroxycyclohexyl)-2-naphthamide] | 0.539 | 
Cc1ccc(Cc2cc(C(=O)N[C@H]3CCOC[C@@H]3O)c(F)c3ccccc23)cc1 (racemic) [Example 10, 1-Fluoro-N-((3RS,4SR)-3-hydroxytetrahydro-2H-pyran-4-yl)-4-(4-methylbenzyl)-2-naphthamide] | 0.154 | 0.221
O=C(N[C@H]1CCOC[C@@H]1O)c1cc(Cc2ccccc2)c2ccccc2c1F (racemic) [Example 11, 4-benzyl-1-fluoro-N-((3RS,4SR)-3-hydroxytetrahydro-2H-pyran-4-yl)-2-naphthamide] | 0.197 | 0.356
O=C(N[C@H]1CCOC[C@@H]1O)c1cc(Cc2ccc(Cl)cc2)c2ccccc2c1F (racemic) [Example 12, 4-(4-chlorobenzyl)-1-fluoro-N-((3RS,4SR)-3-hydroxytetrahydro-2H-pyran-4-yl)-2-naphthamide] | 0.152 | 0.273
N#Cc1ccc(Cc2cc(C(=O)N[C@H]3CCOC[C@@H]3O)c(F)c3ccccc23)cc1 (racemic) [Example 13, 4-(4-cyanobenzyl)-1-fluoro-N-((3RS,4SR)-3-hydroxytetrahydro-2H-pyran-4-yl)-2-naphthamide] | 0.067 | 0.071
Cn1cc(-c2ccc(Cc3cc(C(=O)N[C@H]4CCOC[C@@H]4O)c(F)c4ccccc34)c(F)c2)cn1 (racemic) [Example 14, 1-fluoro-4-(2-fluoro-4-(1-methyl-1H-pyrazol-4-yl)benzyl)-N-((3RS,4SR)-3-hydroxytetrahydro-2H-pyran-4-yl)-2-naphthamide] | 0.014 | 0.014
O=C(N[C@H]1CCOC[C@@H]1O)c1cc(Cc2ccc(OC(F)(F)F)cc2)c2ccccc2c1F (racemic) [Example 15, 1-fluoro-N-((3RS,4SR)-3-hydroxytetrahydro-2H-pyran-4-yl)-4-(4-(trifluoromethoxy)benzyl)-2-naphthamide] | 0.541 | 
Cn1cc(-c2ccc(Cc3cc(C(=O)N[C@H]4CCOC[C@@H]4O)c(F)c4ccccc34)cc2)cn1 (racemic) [Example 16, 1-fluoro-N-((3RS,4SR)-3-hydroxytetrahydro-2H-pyran-4-yl)-4-(4-(1-methyl-1H-pyrazol-4-yl)benzyl)-2-naphthamide] | 0.011 | 0.02
Cn1cc(-c2ccc(Cc3cc(C(=O)N[C@H]4CCCC[C@@H]4O)c(F)c4ccccc34)cn2)cn1 (racemic) [Example 17, 1-Fluoro-N-((1S,2S)-2-hydroxycyclohexyl)-4-((6-(1-methyl-1H-pyrazol-4-yl)pyridin-3-yl)methyl)-2-naphthamide] | 0.01 | 0.014
Cn1cc(-c2ccc(Cc3cc(C(=O)N[C@H]4CCOC[C@@H]4O)c(F)c4ccccc34)cn2)cn1 (racemic) [Example 18, 1-fluoro-N-((3RS,4SR)-3-hydroxytetrahydro-2H-pyran-4-yl)-4-((6-(1-methyl-1H-pyrazol-4-yl)pyridin-3-yl)methyl)-2-naphthamide] | 0.003 | 0.006
Cn1cc(-c2ccc(Cc3cc(C(=O)N[C@H]4CCCC[C@@]4(C)O)c(F)c4ccccc34)cn2)cn1 (racemic) [Example 22, 1-fluoro-N-((1SR,2RS)-2-hydroxy-2-methylcyclohexyl)-4-((6-(1-methyl-1H-pyrazol-4-yl)pyridin-3-yl)methyl)-2-naphthamide] | 0.02 | 0.041
Cc1ccc(Cc2cc(C(=O)N[C@H]3CCCC[C@@H]3O)c(F)c3ccccc23)cn1 (racemic) [Example 23, 1-Fluoro-N-((1SR,2SR)-2-hydroxycyclohexyl)-4-((6-methylpyridin-3-yl)methyl)-2-naphthamide] | 0.213 | 0.49
O=C(N[C@@H]1CCOC[C@H]1O)c1cc(Cc2ccc(Cl)nc2)c2ccccc2c1F (stereo in doubt) [Example 25, 4-[(6-chloropyridin-3-yl)methyl]-1-fluoro-N-[(3S,4R)-3-hydroxyoxan-4-yl]naphthalene-2-carboxamide] | 0.027 | 0.052
O=C(N[C@H]1CCCC[C@@H]1O)c1cc(Cc2ccc(Cl)nc2)c2ccccc2c1F [Example 3, 4-((6-chloropydridin-3-yl)methyl)-1-fluoro-N-((1S,2S)-2-hydroxycyclohexyl)-2-naphthamide] | 0.084 | 0.101
O=C(N[C@H]1COCC[C@@H]1O)c1cc(Cc2ccc(Cl)nc2)c2ccccc2c1F [Example 4, 4-((6-Chloropyridin-3-yl)methyl)-1-fluoro-N-((3S,4S)-4-hydroxytetrahydro-2H-pyran-3-yl)-2-naphthamide] | 0.428 | 
O=C(N[C@H]1CCC[C@@H]1O)c1cc(Cc2ccc(Cl)nc2)c2ccccc2c1F [Example 5, 4-((6-chloropyridin-3-yl)methyl)-1-fluoro-N-((1S,2S)-2-hydroxycyclopentyl)-2-naphthamide] | 0.363 | 0.968
O=C(N[C@H]1CCC[C@H]1O)c1cc(Cc2ccc(Cl)nc2)c2ccccc2c1F [Example 6, 4-((6-chloropydridin-3-yl)methyl)-1-fluoro-N-((1S,2R)-2-hydroxycyclopentyl)-2-naphthamide] | 0.575 | 
Cn1cc(-c2ccc(Cc3cc(C(=O)N[C@@H]4CCOC[C@H]4O)c(F)c4ccccc34)cn2)cn1 [Example 19, 1-fluoro-N-[(3S,4R)-3-hydroxytetrahydropyran-4-yl]-4-[[6-(1-methylpyrazol-4-yl)-3-pyridyl]methyl]naphthalene-2-carboxamide] | 0.065 | 0.097
Cn1cc(-c2ccc(Cc3cc(C(=O)N[C@H]4CCOC[C@@H]4O)c(F)c4ccccc34)cn2)cn1 [Example 20, 1-fluoro-N-[(3R,4S)-3-hydroxytetrahydropyran-4-yl]-4-[[6-(1-methylpyrazol-4-yl)-3-pyridyl]methyl]naphthalene-2-carboxamide] | 0.002 | 0.002
Cn1cc(-c2ccc(Cc3cc(C(=O)N[C@H]4COCC[C@@H]4O)c(F)c4ccccc34)cn2)cn1 [Example 21, 1-fluoro-N-((3S,4S)-4-hydroxytetrahydro-2H-pyran-3-yl)-4-((6-(1-methyl-1H-pyrazol-4-yl)pyridin-3-yl)methyl)-2-naphthamide] | 0.033 | 0.048
O=C(N[C@H]1CCCC[C@@H]1O)c1cc(Cc2ccc(C3CC3)nc2)c2ccccc2c1F [Example 24, 4-((6-Cyclopropylpyridin-3-yl)methyl)-1-fluoro-N-((1S,2S)-2-hydroxycyclohexyl)-2-naphthamide] | 0.23 | 0.347
N#CC1(c2ccccn2)CCN(Cc2cc(C(=O)N[C@H]3CCCC[C@@H]3O)c(F)c3ccccc23)CC1 [Example 26, 4-((4-Cyano-4-(pyridin-2-yl)piperidin-1-yl)methyl)-1-fluoro-N-((1S,2S)-2-hydroxycyclohexyl)-2-naphthamide] | 0.258 | 0.345
